Holding throughout (type): binding
The target in test [1] is kinases (KINOMEscan panel) (Homo sapiens, UniProt O60331). The conditions noted are these: PIP5K1C; NEW KINOMEscan.
Test [2] addresses kinases (KINOMEscan panel) (Homo sapiens, UniProt O96017). As to conditions: kinase CHEK2; NEW KINOMEscan.
Test [3] has as its target kinases (KINOMEscan panel) (Homo sapiens, UniProt P17612). The conditions noted are these: kinase PRKACA; NEW KINOMEscan.
Test [4] concerns the target kinases (KINOMEscan panel) (Homo sapiens, UniProt Q04912). The conditions noted are these: MST1R; NEW KINOMEscan.
The target of test [5] is kinases (KINOMEscan panel) (Homo sapiens, UniProt Q14012). The conditions noted are these: CAMK1; NEW KINOMEscan.
In test [6] the target is T1, kinases (KINOMEscan panel) (Homo sapiens, UniProt Q14164).
T1 sequence (Q14164 1-716): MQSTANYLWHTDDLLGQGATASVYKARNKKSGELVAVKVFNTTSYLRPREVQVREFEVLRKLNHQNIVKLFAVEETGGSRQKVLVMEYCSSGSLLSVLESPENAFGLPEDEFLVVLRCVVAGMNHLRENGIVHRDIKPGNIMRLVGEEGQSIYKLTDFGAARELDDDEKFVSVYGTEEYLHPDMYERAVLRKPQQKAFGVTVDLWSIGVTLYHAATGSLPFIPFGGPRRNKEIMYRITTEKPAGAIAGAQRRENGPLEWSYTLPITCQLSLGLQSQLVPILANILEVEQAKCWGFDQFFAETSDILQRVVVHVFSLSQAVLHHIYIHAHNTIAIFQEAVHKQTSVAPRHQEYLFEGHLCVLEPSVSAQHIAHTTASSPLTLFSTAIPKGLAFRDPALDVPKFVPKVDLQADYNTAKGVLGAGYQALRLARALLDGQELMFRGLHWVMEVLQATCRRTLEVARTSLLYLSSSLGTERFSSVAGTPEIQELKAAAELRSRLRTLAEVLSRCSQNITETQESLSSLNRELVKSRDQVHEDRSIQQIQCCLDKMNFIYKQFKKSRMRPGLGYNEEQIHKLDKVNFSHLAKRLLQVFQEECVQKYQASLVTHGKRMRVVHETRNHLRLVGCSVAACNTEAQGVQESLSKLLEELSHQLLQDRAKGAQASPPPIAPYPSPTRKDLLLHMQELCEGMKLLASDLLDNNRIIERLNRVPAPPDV

The target in test [7] is T2, kinases (KINOMEscan panel) (Homo sapiens, UniProt Q6P3R8).
T2 sequence (Q6P3R8 1-708): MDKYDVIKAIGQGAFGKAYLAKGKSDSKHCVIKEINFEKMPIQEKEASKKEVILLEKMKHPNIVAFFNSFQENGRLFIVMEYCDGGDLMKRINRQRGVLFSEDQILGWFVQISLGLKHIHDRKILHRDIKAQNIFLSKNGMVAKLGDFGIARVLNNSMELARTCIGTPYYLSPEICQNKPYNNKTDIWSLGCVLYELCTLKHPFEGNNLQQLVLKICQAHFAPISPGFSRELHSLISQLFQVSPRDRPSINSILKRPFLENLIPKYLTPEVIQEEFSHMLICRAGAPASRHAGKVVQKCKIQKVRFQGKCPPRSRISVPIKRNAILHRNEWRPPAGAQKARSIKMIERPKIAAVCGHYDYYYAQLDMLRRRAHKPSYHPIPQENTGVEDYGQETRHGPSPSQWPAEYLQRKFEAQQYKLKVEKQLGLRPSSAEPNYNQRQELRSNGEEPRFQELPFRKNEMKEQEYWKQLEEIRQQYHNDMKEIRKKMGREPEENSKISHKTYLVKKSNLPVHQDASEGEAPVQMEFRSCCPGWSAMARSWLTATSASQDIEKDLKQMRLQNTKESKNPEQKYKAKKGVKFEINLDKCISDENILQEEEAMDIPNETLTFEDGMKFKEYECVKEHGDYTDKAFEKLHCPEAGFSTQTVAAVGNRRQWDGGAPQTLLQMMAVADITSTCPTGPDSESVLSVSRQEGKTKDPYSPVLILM
The conditions noted are these: kinase NEK5; NEW KINOMEscan.

The target of test [8] is kinases (KINOMEscan panel) (Homo sapiens, UniProt Q86Z02). As to conditions: HIPK1; NEW KINOMEscan.
Test [9] has as its target T3, kinases (KINOMEscan panel) (Homo sapiens, UniProt Q8IYT8).
T3 sequence (Q8IYT8 1-1036): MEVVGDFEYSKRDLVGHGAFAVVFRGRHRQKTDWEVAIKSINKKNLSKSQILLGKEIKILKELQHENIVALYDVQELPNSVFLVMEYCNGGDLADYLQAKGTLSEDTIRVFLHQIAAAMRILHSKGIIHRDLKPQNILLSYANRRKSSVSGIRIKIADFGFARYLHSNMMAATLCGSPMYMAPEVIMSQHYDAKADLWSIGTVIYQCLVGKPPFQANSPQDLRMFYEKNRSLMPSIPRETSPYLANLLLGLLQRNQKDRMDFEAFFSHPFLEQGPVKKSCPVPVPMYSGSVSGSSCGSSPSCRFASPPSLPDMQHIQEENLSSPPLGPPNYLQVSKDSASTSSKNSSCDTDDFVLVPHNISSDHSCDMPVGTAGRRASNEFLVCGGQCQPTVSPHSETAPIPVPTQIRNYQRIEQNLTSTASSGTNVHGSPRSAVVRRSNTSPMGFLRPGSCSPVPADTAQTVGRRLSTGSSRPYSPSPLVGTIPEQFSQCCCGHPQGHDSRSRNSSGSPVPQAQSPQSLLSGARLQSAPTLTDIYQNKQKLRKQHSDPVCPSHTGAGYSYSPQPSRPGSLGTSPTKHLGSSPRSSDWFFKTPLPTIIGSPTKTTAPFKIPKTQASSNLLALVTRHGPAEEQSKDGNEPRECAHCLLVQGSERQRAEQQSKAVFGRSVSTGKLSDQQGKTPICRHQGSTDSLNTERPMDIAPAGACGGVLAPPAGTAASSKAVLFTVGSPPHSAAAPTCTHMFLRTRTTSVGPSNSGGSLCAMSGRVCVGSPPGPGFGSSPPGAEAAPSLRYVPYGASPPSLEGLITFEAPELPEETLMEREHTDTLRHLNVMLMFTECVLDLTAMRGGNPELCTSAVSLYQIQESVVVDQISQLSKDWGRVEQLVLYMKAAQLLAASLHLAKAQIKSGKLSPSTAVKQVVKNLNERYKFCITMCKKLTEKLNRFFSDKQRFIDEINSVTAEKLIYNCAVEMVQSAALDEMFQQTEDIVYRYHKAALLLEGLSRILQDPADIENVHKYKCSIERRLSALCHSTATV
The conditions noted are these: NEW KINOMEscan.

kinases (KINOMEscan panel) (Homo sapiens, UniProt Q14012), sequence (Q14012 whole entry): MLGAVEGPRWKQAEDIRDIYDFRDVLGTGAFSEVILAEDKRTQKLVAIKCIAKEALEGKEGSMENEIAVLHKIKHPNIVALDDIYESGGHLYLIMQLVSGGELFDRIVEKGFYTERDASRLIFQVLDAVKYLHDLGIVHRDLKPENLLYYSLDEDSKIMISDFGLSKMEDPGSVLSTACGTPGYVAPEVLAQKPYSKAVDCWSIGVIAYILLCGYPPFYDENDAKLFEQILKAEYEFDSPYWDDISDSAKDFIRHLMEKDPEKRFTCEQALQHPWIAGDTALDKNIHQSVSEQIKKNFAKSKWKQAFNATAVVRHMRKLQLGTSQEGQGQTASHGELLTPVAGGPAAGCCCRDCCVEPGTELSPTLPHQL
kinases (KINOMEscan panel) (Homo sapiens, UniProt O96017), sequence (O96017 whole entry): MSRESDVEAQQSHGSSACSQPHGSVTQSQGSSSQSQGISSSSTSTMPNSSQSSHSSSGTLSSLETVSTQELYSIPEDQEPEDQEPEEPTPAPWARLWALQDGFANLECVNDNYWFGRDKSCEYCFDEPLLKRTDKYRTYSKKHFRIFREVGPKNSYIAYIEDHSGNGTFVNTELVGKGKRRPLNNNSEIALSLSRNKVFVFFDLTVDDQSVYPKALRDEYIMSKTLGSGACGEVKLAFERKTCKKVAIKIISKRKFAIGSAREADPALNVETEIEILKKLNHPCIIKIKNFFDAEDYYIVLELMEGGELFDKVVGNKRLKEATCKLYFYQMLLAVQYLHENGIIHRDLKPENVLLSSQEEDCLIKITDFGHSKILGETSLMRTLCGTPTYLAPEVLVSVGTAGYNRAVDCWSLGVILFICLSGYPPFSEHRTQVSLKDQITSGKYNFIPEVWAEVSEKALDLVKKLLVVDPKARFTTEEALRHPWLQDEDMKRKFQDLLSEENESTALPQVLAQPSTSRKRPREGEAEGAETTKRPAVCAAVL
kinases (KINOMEscan panel) (Homo sapiens, UniProt Q04912), sequence (Q04912 25-1400): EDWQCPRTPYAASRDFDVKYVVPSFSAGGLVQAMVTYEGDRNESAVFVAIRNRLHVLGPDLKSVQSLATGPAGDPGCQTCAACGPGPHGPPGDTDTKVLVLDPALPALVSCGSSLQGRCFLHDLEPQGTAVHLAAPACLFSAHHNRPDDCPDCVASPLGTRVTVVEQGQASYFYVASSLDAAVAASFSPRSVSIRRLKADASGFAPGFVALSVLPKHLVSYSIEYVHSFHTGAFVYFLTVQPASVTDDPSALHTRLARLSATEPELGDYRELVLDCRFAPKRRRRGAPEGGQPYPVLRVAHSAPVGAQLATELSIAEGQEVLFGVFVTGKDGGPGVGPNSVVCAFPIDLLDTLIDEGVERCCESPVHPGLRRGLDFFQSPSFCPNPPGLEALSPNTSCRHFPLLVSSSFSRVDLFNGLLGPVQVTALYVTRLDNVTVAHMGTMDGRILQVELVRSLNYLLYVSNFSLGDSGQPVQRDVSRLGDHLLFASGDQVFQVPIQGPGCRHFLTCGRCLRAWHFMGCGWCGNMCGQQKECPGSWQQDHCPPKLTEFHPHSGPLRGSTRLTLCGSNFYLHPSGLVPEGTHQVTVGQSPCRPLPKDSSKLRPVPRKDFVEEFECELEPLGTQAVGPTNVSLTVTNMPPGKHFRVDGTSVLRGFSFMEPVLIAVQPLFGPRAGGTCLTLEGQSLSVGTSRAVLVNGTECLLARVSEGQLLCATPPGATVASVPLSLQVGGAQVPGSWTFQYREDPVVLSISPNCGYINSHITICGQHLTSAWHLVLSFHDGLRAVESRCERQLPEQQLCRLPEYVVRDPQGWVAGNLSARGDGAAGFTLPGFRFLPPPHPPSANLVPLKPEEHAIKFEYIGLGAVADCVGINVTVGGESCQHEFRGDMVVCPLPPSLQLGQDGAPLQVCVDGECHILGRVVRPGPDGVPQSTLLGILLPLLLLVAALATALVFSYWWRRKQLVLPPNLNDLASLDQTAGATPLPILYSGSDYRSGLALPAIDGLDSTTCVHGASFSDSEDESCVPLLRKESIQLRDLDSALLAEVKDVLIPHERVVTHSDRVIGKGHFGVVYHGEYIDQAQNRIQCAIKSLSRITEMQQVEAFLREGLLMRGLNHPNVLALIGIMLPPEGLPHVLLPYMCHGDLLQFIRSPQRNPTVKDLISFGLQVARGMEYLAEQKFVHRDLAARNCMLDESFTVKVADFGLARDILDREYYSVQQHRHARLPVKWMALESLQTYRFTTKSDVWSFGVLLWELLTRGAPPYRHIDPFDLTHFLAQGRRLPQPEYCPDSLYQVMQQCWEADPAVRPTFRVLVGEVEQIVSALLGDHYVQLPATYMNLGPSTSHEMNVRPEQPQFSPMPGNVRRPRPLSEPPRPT
kinases (KINOMEscan panel) (Homo sapiens, UniProt Q86Z02), sequence (Q86Z02 whole entry): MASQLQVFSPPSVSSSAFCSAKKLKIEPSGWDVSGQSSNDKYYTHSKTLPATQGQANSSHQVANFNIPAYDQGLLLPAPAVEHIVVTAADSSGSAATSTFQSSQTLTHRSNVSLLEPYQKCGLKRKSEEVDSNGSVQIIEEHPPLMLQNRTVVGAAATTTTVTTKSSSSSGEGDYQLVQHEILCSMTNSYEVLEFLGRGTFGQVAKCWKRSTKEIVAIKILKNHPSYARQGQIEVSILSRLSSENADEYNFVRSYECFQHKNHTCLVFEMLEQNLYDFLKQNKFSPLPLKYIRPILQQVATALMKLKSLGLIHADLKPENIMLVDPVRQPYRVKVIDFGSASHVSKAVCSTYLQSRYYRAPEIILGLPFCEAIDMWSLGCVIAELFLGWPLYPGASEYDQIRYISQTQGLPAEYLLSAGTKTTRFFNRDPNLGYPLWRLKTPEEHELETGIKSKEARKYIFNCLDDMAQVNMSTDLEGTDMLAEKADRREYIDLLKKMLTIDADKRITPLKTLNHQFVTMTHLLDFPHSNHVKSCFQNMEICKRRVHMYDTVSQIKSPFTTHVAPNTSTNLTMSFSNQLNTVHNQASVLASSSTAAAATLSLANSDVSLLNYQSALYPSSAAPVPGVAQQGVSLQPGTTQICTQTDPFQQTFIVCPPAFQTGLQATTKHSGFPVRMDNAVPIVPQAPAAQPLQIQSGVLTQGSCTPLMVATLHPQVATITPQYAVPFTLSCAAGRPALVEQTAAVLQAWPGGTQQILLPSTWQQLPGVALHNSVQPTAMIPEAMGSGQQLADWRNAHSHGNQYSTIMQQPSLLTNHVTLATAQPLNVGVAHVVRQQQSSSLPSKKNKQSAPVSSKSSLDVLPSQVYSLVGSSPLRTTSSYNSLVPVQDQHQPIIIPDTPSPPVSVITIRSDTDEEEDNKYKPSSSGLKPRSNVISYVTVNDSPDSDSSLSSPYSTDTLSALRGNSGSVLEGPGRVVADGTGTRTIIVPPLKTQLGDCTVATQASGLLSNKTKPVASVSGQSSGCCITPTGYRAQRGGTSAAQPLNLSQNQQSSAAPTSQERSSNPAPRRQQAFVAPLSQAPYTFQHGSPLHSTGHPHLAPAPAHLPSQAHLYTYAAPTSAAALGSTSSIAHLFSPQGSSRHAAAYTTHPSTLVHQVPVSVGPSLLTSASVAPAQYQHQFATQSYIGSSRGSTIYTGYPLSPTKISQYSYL
kinases (KINOMEscan panel) (Homo sapiens, UniProt O60331), sequence (O60331 whole entry): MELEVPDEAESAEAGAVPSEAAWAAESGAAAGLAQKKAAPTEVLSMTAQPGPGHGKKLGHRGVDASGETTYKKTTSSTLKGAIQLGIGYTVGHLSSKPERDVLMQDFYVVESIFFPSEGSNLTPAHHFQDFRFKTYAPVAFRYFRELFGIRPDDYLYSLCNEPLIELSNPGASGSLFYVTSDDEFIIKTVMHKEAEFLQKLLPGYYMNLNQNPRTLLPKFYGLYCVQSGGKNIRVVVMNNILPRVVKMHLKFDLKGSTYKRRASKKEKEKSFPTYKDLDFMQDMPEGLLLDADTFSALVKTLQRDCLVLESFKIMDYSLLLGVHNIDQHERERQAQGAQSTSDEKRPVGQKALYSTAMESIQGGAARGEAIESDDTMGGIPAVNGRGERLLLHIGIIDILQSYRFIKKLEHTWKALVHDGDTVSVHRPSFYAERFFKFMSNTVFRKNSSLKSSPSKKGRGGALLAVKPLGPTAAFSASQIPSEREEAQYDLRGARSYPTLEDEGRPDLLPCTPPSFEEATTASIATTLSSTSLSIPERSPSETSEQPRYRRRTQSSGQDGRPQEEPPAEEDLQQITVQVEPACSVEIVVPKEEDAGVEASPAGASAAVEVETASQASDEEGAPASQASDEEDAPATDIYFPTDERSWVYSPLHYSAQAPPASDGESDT

As for `Cc1cccc(-c2nc(N(C)c3ccc4ncsc4c3)c3ccccc3n2)n1` [NK-161], in test [1], the “KINOMEscan PIP5K1C” value came to 1. Further, in [2], the “KINOMEscan CHEK2” value stood at 0. Also, the “KINOMEscan PRKACA” value in [3] worked out at 17. Further, in test [4], the “KINOMEscan MST1R” value is reported as 2. Besides, in test [5], the “KINOMEscan CAMK1” value is reported as 0. Further, in test [6], the “KINOMEscan IKBKE/IKK-epsilon” value is listed as 0. Also, in test [7], the “KINOMEscan NEK5” value is 0. For the same compound, the “KINOMEscan HIPK1” value in test [8] was determined as 5. In [9], the “KINOMEscan ULK2” value is given as 23.
As for `Cc1cccc(-c2nc(Nc3ccc4nn(C)cc4c3)c3ccccc3n2)n1` [NK167], in test [1], the “KINOMEscan PIP5K1C” value is recorded as 18. For the same compound, in [2], the “KINOMEscan CHEK2” value amounted to 0. In [3], the “KINOMEscan PRKACA” value is 12. In test [4], the “KINOMEscan MST1R” value worked out at 0. For the same compound, the “KINOMEscan CAMK1” value in test [5] turned out to be 0. Moreover, in test [6], the “KINOMEscan IKBKE/IKK-epsilon” value worked out at 0. In addition, the “KINOMEscan NEK5” value in test [7] was 0. For the same compound, the “KINOMEscan HIPK1” value in test [8] is recorded as 27. The “KINOMEscan ULK2” value in test [9] was 17.
